# Experimental data published in PubChem BioAssay AID1963840 (Molecular Pharmacology Branch, DTP, NCI, 2024).
# Tested on: 695427-040-R-J1-PDC complex spheroid viability
# Test: Anticancer human tumor 695427-040-R-J1-PDC patient-derived colon adenocarcinoma cell line growth inhibition [POLQ]
# Conditions: for IC50: curve of first compound; for viability, T/C: stronger effect = lower value
# Outline: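 PDC + HUVEC + MSC complex spheroids; POLQ inhibitors ± partner drugs; top conc. at/near clinical Cmax, else 10 microM (SN-38 1 microM), half-log dilutions; 37 degrees C, 5% CO2.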
# [1] = second compound 0.0316 µM, first compound 0.0316 µM
# [2] = second compound 0.0316 µM, first compound 0.1 µM
# [3] = second compound 0.0316 µM, first compound 0.316 µM
# [4] = second compound 0.0316 µM, first compound 1 µM
# [5] = second compound 0.0316 µM, first compound 3.16 µM
# [6] = second compound 0.0316 µM, first compound 10 µM
# [7] = second compound 0.1 µM, first compound 0.0316 µM
# [8] = second compound 0.1 µM, first compound 0.1 µM
# [9] = second compound 0.1 µM, first compound 0.316 µM
# [10] = second compound 0.1 µM, first compound 1 µM
# [11] = second compound 0.1 µM, first compound 3.16 µM
# [12] = second compound 0.1 µM, first compound 10 µM
# [13] = second compound 0.316 µM, first compound 0.0316 µM
# [14] = second compound 0.316 µM, first compound 0.1 µM
# [15] = second compound 0.316 µM, first compound 0.316 µM
# [16] = second compound 0.316 µM, first compound 1 µM
# [17] = second compound 0.316 µM, first compound 3.16 µM
# [18] = second compound 0.316 µM, first compound 10 µM
# [19] = second compound 1 µM, first compound 0.0316 µM
# [20] = second compound 1 µM, first compound 0.1 µM
# [21] = second compound 1 µM, first compound 0.316 µM
# [22] = second compound 1 µM, first compound 1 µM
# [23] = second compound 1 µM, first compound 3.16 µM
# [24] = second compound 1 µM, first compound 10 µM
# [25] = second compound 3.16 µM, first compound 0.0316 µM
# [26] = second compound 3.16 µM, first compound 0.1 µM
# [27] = second compound 3.16 µM, first compound 0.316 µM
# [28] = second compound 3.16 µM, first compound 1 µM
# [29] = second compound 3.16 µM, first compound 3.16 µM
# [30] = second compound 3.16 µM, first compound 10 µM
# [31] = second compound 10 µM, first compound 0.0316 µM
# [32] = second compound 10 µM, first compound 0.1 µM
# [33] = second compound 10 µM, first compound 0.316 µM
# [34] = second compound 10 µM, first compound 1 µM
# [35] = second compound 10 µM, first compound 3.16 µM
# [36] = second compound 10 µM, first compound 10 µM
# 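Also: spheroids exposed to compounds for seven days.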
# 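For viability, T/C in this document: 100% = DMSO vehicle control viability.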
smiles,measurement,setting,value
Nc1ccn(C2OC(CO)C(O)C2(F)F)c(=O)n1 (stereo unspecified) + Nc1ccc(C#CCN(C(=O)Cc2ncc(C(F)(F)F)cc2C(F)(F)F)c2ccc(F)cc2)nn1,IC50,second compound 0.0316 µM,> 10000 nM
same,IC50,second compound 0.1 µM,> 10000 nM
same,IC50,second compound 0.316 µM,> 10000 nM
same,IC50,second compound 1 µM,> 10000 nM
same,IC50,second compound 3.16 µM,> 10000 nM
same,IC50,second compound 10 µM,> 10000 nM
same,"viability, T/C",[1],103%
same,"viability, T/C",[2],92.8%
same,"viability, T/C",[3],92.1%
same,"viability, T/C",[4],91.3%
same,"viability, T/C",[5],81.8%
same,"viability, T/C",[6],66.6%
same,"viability, T/C",[7],98%
same,"viability, T/C",[8],96.1%
same,"viability, T/C",[9],90.8%
same,"viability, T/C",[10],81.3%
same,"viability, T/C",[11],80.4%
same,"viability, T/C",[12],62.2%
same,"viability, T/C",[13],106%
same,"viability, T/C",[14],102%
same,"viability, T/C",[15],75.9%
same,"viability, T/C",[16],78%
same,"viability, T/C",[17],79%
same,"viability, T/C",[18],68.1%
same,"viability, T/C",[19],104%
same,"viability, T/C",[20],90.9%
same,"viability, T/C",[21],89.4%
same,"viability, T/C",[22],78.8%
same,"viability, T/C",[23],80.7%
same,"viability, T/C",[24],63.7%
same,"viability, T/C",[25],102%
same,"viability, T/C",[26],93.3%
same,"viability, T/C",[27],85.1%
same,"viability, T/C",[28],84.8%
same,"viability, T/C",[29],83.7%
same,"viability, T/C",[30],65.8%
same,"viability, T/C",[31],92.5%
same,"viability, T/C",[32],86.7%
same,"viability, T/C",[33],82.3%
same,"viability, T/C",[34],84.6%
same,"viability, T/C",[35],89.2%
same,"viability, T/C",[36],73.9%
CC1COCCN1c1cc(-c2ccnn2C)c2ccnc(-c3ccn[nH]3)c2n1 (stereo unspecified) + Cc1cccc(N(C)C(=O)C2C(O)CCN2c2nc(C)cc(C(F)(F)F)c2C#N)c1,IC50,second compound 0.0316 µM,1910 nM
same,IC50,second compound 0.1 µM,2180 nM
same,IC50,second compound 0.316 µM,1360 nM
same,IC50,second compound 1 µM,1890 nM
same,IC50,second compound 3.16 µM,1980 nM
same,IC50,second compound 10 µM,1790 nM
same,"viability, T/C",[1],97.1%
same,"viability, T/C",[2],83%
same,"viability, T/C",[3],61.4%
same,"viability, T/C",[4],53.4%
same,"viability, T/C",[5],49%
same,"viability, T/C",[6],46.5%
same,"viability, T/C",[7],95.2%
same,"viability, T/C",[8],83.1%
same,"viability, T/C",[9],66.1%
same,"viability, T/C",[10],51.1%
same,"viability, T/C",[11],49.1%
same,"viability, T/C",[12],48.4%
same,"viability, T/C",[13],104%
same,"viability, T/C",[14],83.5%
same,"viability, T/C",[15],65.3%
same,"viability, T/C",[16],46.4%
same,"viability, T/C",[17],49.5%
same,"viability, T/C",[18],46.9%
same,"viability, T/C",[19],89.3%
same,"viability, T/C",[20],77.8%
same,"viability, T/C",[21],59.9%
same,"viability, T/C",[22],46.1%
same,"viability, T/C",[23],52.8%
same,"viability, T/C",[24],49.5%
same,"viability, T/C",[25],97.9%
same,"viability, T/C",[26],78.7%
same,"viability, T/C",[27],66.1%
same,"viability, T/C",[28],48.5%
same,"viability, T/C",[29],49%
same,"viability, T/C",[30],48%
same,"viability, T/C",[31],86.5%
same,"viability, T/C",[32],74.2%
same,"viability, T/C",[33],61.2%
same,"viability, T/C",[34],49.5%
same,"viability, T/C",[35],50.4%
same,"viability, T/C",[36],47.1%
CC[C@@]1(O)C(=O)OCc2c1cc1n(c2=O)Cc2cc3c(CN(C)C)c(O)ccc3nc2-1 + Nc1ccc(C#CCN(C(=O)Cc2ncc(C(F)(F)F)cc2C(F)(F)F)c2ccc(F)cc2)nn1,IC50,second compound 0.0316 µM,> 100 nM
same,IC50,second compound 0.1 µM,> 100 nM
same,IC50,second compound 0.316 µM,> 100 nM
same,IC50,second compound 1 µM,> 100 nM
same,IC50,second compound 3.16 µM,> 100 nM
same,IC50,second compound 10 µM,> 100 nM
same,"viability, T/C","second compound 0.0316 µM, first compound 0.000316 µM",110%
same,"viability, T/C","second compound 0.0316 µM, first compound 0.001 µM",111%
same,"viability, T/C","second compound 0.0316 µM, first compound 0.00316 µM",102%
same,"viability, T/C","second compound 0.0316 µM, first compound 0.01 µM",102%
same,"viability, T/C",[1],115%
same,"viability, T/C",[2],109%
same,"viability, T/C","second compound 0.1 µM, first compound 0.000316 µM",114%
same,"viability, T/C","second compound 0.1 µM, first compound 0.001 µM",105%
same,"viability, T/C","second compound 0.1 µM, first compound 0.00316 µM",104%
same,"viability, T/C","second compound 0.1 µM, first compound 0.01 µM",100%
same,"viability, T/C",[7],107%
same,"viability, T/C",[8],103%
same,"viability, T/C","second compound 0.316 µM, first compound 0.000316 µM",109%
same,"viability, T/C","second compound 0.316 µM, first compound 0.001 µM",102%
same,"viability, T/C","second compound 0.316 µM, first compound 0.00316 µM",108%
same,"viability, T/C","second compound 0.316 µM, first compound 0.01 µM",97.7%
same,"viability, T/C",[13],108%
same,"viability, T/C",[14],101%
same,"viability, T/C","second compound 1 µM, first compound 0.000316 µM",100%
same,"viability, T/C","second compound 1 µM, first compound 0.001 µM",97.8%
same,"viability, T/C","second compound 1 µM, first compound 0.00316 µM",105%
same,"viability, T/C","second compound 1 µM, first compound 0.01 µM",109%
same,"viability, T/C",[19],110%
same,"viability, T/C",[20],103%
same,"viability, T/C","second compound 3.16 µM, first compound 0.000316 µM",107%
same,"viability, T/C","second compound 3.16 µM, first compound 0.001 µM",111%
same,"viability, T/C","second compound 3.16 µM, first compound 0.00316 µM",102%
same,"viability, T/C","second compound 3.16 µM, first compound 0.01 µM",107%
same,"viability, T/C",[25],114%
same,"viability, T/C",[26],103%
same,"viability, T/C","second compound 10 µM, first compound 0.000316 µM",99.5%
same,"viability, T/C","second compound 10 µM, first compound 0.001 µM",98.3%
same,"viability, T/C","second compound 10 µM, first compound 0.00316 µM",103%
same,"viability, T/C","second compound 10 µM, first compound 0.01 µM",89.4%
same,"viability, T/C",[31],95.3%
same,"viability, T/C",[32],93.9%
